In patent US4275067A, “Decarboxyclavulanic acid thio ethers, their preparation and use” (Beecham Group Limited, priority 1977, dated 1981):
Values after ≈ are worked out from the molar mass of the structure shown. Read-outs that look alike come from different tables or passages of the source. Blank lines part the entries; values can stand above or below the compound they belong to.

Key:
[1] = target: β-lactamase (Pseudomonas aeruginosa A); assay: β-lactamase inhibition; format: biochemical; conditions: β-lactamase from Pseudomonas aeruginosa A
Description: (§1) I50 values were determined using the process described in Belgian Pat. No. 827,926.

[2] = target: T1, β-lactamase (Ps. aeruginosa Dalgleish) (Pseudomonas aeruginosa, UniProt P16897); assay: β-lactamase inhibition; format: biochemical; conditions: β-lactamase from Ps. aeruginosa Dalgleish; read-out: I50 (converted)
T1 construct: Source of β-lactamase; endogenous in cells; host or cells: Ps. aeruginosa Dalgleish
T1 sequence (P16897 18-288): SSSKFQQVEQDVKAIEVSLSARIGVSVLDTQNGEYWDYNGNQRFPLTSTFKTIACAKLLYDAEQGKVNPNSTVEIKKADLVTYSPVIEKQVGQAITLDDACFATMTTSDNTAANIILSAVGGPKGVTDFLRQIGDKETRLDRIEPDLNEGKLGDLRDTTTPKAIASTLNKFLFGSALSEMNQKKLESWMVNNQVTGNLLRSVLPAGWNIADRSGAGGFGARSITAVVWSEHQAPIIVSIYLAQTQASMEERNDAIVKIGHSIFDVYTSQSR
Description: as §1

[3] = target: T2, β-lactamase (E. coli JT 4) (Escherichia coli, UniProt P62593); assay: β-lactamase inhibition; format: biochemical; conditions: β-lactamase from E. coli JT 4; read-out: I50 (converted)
T2 construct: Source of β-lactamase; endogenous in cells; host or cells: E. coli JT 4
T2 sequence (P62593 24-286 limits assumed): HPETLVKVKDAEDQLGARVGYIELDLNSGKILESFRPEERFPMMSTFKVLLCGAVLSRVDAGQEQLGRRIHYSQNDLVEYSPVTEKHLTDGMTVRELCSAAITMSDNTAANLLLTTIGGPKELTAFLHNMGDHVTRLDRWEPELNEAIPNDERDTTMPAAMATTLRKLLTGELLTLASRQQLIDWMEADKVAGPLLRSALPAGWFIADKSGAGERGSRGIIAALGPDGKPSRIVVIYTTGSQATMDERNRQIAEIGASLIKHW
Description: as §1

[4] = target: β-lactamase (Proteus mirabilis C 889); assay: β-lactamase inhibition; format: biochemical; conditions: β-lactamase from Proteus mirabilis C 889
Description: as §1

[5] = target: T3, β-lactamase (Enterobacter cloacae P 99) (Enterobacter cloacae, UniProt P05364); assay: β-lactamase inhibition; format: biochemical; conditions: β-lactamase from Enterobacter cloacae P 99; read-out: I50 (converted)
T3 construct: Source of β-lactamase; endogenous in cells; host or cells: Enterobacter cloacae P 99
T3 sequence (P05364 21-381): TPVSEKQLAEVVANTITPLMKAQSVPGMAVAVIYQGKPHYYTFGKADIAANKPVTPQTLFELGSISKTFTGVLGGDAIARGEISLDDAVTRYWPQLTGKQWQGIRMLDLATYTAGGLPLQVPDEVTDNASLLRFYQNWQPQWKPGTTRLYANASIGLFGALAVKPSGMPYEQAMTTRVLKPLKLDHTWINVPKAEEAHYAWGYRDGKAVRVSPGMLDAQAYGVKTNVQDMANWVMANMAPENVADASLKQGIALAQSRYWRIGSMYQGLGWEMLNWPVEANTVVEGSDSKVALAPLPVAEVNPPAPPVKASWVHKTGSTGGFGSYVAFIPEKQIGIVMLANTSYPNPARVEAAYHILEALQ
Description: as §1

[6] = target: T4, β-lactamase (Staph. aureus Russell) (Staphylococcus aureus, UniProt P00807); assay: β-lactamase inhibition; format: biochemical; conditions: β-lactamase from Staph. aureus Russell; read-out: I50 (converted)
T4 construct: Source of β-lactamase; endogenous in cells; host or cells: Staph. aureus Russell
Description: as §1

[7] = system: Staph. aureus Russell and Klebsiella aerogenes E70; assay: Antibacterial synergy when combined with ampicillin (overall statement); format: cell-based
Saccharomyces cerevisiae = assay: Anti-fungal activity, microtitre method; format: cell-based; conditions: glucosepeptone broth
Text: (§2) The anti-fungal activity of the compound of Example 7 was investigated using a microtitre method, with glucosepeptone broth at 1/50 and 1/500 final dilutions of inoculum. The organisms used were Candida albicans and Saccharomyces cerevisiae. The minimum inhibitory concentrations (MIC) are shown below.

Candida albicans = assay: Anti-fungal activity, microtitre method; format: cell-based; conditions: glucosepeptone broth
Text: as §2

Staph. aureus Russell = assay: Antibacterial synergy with ampicillin; format: cell-based; conditions: ampicillin without inhibitor

SMILES: O=C1C[C@H]2O/C(=C\CSc3ccccc3)CN12 [Example 1, (Z, 5R)-3-(2-Phenylthioethylidene)-4-oxa-1-azabicyclo [3.2.0]heptan-7-one]
- I50 [1]: 2.2 µg/mL
- IC50 [2]: 2.43 µM
- IC50 [3]: 1.46 µM
- I50 [4]: 4.4 µg/mL
- IC50 [5]: 5.34 µM
- IC50 [6]: 1.01 µM
- antibacterial synergy [7]: active as antibacterial synergists

- MIC (Saccharomyces cerevisiae; final dilution of inoculum 1/50, read-out: minimum inhibitory concentration (MIC)): > 100 µg/mL
- MIC (Saccharomyces cerevisiae; final dilution of inoculum 1/500, read-out: minimum inhibitory concentration (MIC)): 100 µg/mL (≈ 389 µM)
- MIC (Candida albicans; Candida albicans, final dilution of inoculum 1/50, read-out: minimum inhibitory concentration (MIC)): 12.5 µg/mL (≈ 48.6 µM)
- minimum inhibitory concentration (MIC) (Candida albicans; final dilution of inoculum 1/500): 12.5 µg/mL (≈ 48.6 µM)
SMILES: COC(=O)CCSC/C=C1/CN2C(=O)C[C@H]2O1 [Example 7, (Z)-(5R)-3-[2-(2-Methoxycarbonylethylthio)ethylidene]-4-oxa-1-azabicyclo[3.2.0]hetpan-7-one]

- MIC for ampicillin (Staph. aureus Russell): 250 µg/mL
SMILES: CC1(C)S[C@@H]2[C@H](NC(=O)[C@H](N)c3ccccc3)C(=O)N2[C@H]1C(=O)O [ampicillin]
